32 compounds from patent US20250179078A1, “INHIBITORS OF NLRP3” (PTC THERAPEUTICS, INC., priority 2022, published 2025) can be followed below.

Bounds are passed on as bounds.

This experiment deals with T1, NLRP3 (Homo sapiens, UniProt Q96P20).
T1 construct: host or cells: THP-1 cells differentiated with PMA
Kind of experiment: IL-1β Secretion Assay (NLRP3-dependent IL1β secretion in THP1 cells). As to conditions: PMA-differentiated THP-1 cells; compounds incubated 20 h; 2.5 μM Nigericin 3 h; HTRF IL-1β readout; read-out: IC50 IL-1β Inhibition. Format: cell-based. An outline of the steps:
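THP-1 cells differentiated with 100 ng/mL PMA for 24 h, then given compound (7-point 3-fold series, 1:200 from DMSO) for 20 h in RPMI+5% FBS. NLRP3 activated with 2.5 μM nigericin for 3 h; secreted IL-1β measured by HTRF; IC50 from logistic fit of % inhibition.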
A general note: Time-resolved FRET reads energy transfer from a long-lived donor to a nearby acceptor.

T1 sequence (Q96P20 whole entry): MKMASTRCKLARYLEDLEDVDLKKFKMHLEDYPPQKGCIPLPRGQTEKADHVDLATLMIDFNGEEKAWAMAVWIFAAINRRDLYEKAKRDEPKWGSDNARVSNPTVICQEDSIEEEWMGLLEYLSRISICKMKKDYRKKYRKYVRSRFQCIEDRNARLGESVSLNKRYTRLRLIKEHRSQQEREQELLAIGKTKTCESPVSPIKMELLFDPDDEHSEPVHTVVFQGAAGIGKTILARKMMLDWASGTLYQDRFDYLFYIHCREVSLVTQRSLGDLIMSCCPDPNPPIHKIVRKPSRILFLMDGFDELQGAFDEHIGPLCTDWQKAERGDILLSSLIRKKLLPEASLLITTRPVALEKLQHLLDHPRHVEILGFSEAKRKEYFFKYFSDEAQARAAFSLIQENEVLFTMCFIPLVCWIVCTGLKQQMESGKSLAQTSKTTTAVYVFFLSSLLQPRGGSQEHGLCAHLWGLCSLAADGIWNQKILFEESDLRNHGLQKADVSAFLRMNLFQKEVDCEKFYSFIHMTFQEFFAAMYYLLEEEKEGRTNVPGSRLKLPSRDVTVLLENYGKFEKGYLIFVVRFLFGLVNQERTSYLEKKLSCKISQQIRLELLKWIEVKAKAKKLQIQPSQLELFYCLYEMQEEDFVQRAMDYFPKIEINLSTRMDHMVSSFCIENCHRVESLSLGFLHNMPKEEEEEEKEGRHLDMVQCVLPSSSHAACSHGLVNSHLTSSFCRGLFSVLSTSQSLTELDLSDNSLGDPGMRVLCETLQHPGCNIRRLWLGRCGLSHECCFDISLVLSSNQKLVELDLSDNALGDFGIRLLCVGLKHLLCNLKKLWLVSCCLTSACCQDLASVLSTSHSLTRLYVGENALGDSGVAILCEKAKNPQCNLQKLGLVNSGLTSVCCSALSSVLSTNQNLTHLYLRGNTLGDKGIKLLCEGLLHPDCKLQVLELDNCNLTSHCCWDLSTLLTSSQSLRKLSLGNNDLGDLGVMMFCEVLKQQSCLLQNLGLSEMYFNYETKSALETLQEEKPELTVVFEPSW

One may read the IC50 as the concentration at which inhibition is half-maximal. With `C[C@]1(O)C[C@@H](Nc2nnc(-c3ccc(C(F)(F)F)cc3CC(F)(F)F)c3cccn23)C1` [Compound 41, (1s,3s)-1-methyl-3-({1-[2-(2,2,2-trifluoroethyl)-4-(trifluoromethyl)phenyl]pyrrolo[1,2-d][1,2,4]triazin-4-yl}amino)cyclobutan-1-ol], the IC50 is 1 to 10 nM.

Take `OCCN1CCC[C@@H](Nc2nnc(-c3ccc(C(F)(F)F)cc3OC(F)F)c3cncn23)C1` [Compound 186, 2-[(3R)-3-({1-[2-(difluoromethoxy)-4-(trifluoromethyl)phenyl]imidazo[1,5-d][1,2,4]triazin-4-yl}amino)piperidin-1-yl]ethan-1-ol]: the IC50 was under 1 nM. Under `Cc1ccc(-c2nnc(N[C@@H]3CCCN(C)C3)n3nc(C)cc23)c(OC(F)F)c1` [Compound 361, 4-[2-(difluoromethoxy)-4-methylphenyl]-2-methyl-N-[(3R)-1-methylpiperidin-3-yl]pyrazolo[1,5-d][1,2,4]triazin-7-amine] stands 1 to 10 nM. `CN1CCCC(Nc2nnc(-c3ccc(C(F)(F)F)cc3CC(F)(F)F)c3cncn23)C1=O` (centres unmarked) [Compound 329, 1-methyl-3-({1-[2-(2,2,2-trifluoroethyl)-4-(trifluoromethyl)phenyl]imidazo[1,5-d][1,2,4]triazin-4-yl}amino)piperidin-2-one]: the 50% inhibitory concentration (IC50) fell in the range of 1 to 10 nM.

Take `COc1ccc(-c2nnc(NC(C)c3cccnc3)n3cncc23)c(OC(F)(F)F)c1` (single isomer, unassigned) [Compound 309]: the IC50 lay in the range of 10 to 100 nM.

For `O[C@@H]1COCC[C@H]1Nc1nnc(-c2ccc(C(F)(F)F)cc2CC(F)(F)F)c2cccn12` [Compound 112, (3S,4R)-4-({1-[2-(2,2,2-trifluoroethyl)-4-(trifluoromethyl)phenyl]pyrrolo[1,2-d][1,2,4]triazin-4-yl}amino)oxan-3-ol], the concentration for half-maximal inhibition (IC50) was 1 to 10 nM. As for `O=C1NCCC1Nc1nnc(-c2ccc(C(F)(F)F)cc2C(F)(F)F)c2cncn12` (centres unmarked) [Compound 294, 3-({1-[2,4-bis(trifluoromethyl)phenyl]imidazo[1,5-d][1,2,4]triazin-4-yl}amino)pyrrolidin-2-one], the half-maximal inhibitory concentration (IC50) was in the range of 1 to 10 nM. For `COc1ccc(-c2nnc(N[C@@H]3CCCN(CCO)C3)n3cccc23)c(OC(F)(F)F)c1` [Compound 61, 2-[(3R)-3-({1-[4-methoxy-2-(trifluoromethoxy)phenyl]pyrrolo[1,2-d][1,2,4]triazin-4-yl}amino)piperidin-1-yl]ethan-1-ol], the concentration for half-maximal inhibition (IC50) was under 1 nM. Take `O[C@H]1CC[C@@H](Nc2nnc(-c3ccc(C(F)(F)F)cc3C(F)(F)F)c3cncn23)CC1` [Compound 275, (1s,4s)-4-({1-[2,4-bis(trifluoromethyl)phenyl]imidazo[1,5-d][1,2,4]triazin-4-yl}amino)cyclohexan-1-ol]: the IC50 lay within 10 to 100 nM.

As to `O[C@H]1COCC[C@H]1Nc1nnc(-c2ccc(C(F)(F)F)cc2CC(F)(F)F)c2cccn12` [Compound 114, (3R,4R)-4-({1-[2-(2,2,2-trifluoroethyl)-4-(trifluoromethyl)phenyl]pyrrolo[1,2-d][1,2,4]triazin-4-yl}amino)oxan-3-ol], the IC50 fell in the range of 1 to 10 nM. Take `COc1ccc(-c2nnc(N[C@@H]3CCCC[C@@]3(C)O)n3cncc23)c(OC(F)(F)F)c1` (single isomer, unassigned) [Compound 311]: the concentration for half-maximal inhibition (IC50) was 1 to 10 nM. In the case of `COc1ccc(-c2nnc(N[C@@H]3CCCN(CCO)C3)n3ccc(F)c23)c(Cl)c1` [Compound 83, 2-[(3R)-3-{[1-(2-chloro-4-methoxyphenyl)-8-fluoropyrrolo[1,2-d][1,2,4]triazin-4-yl]amino}piperidin-1-yl]ethan-1-ol], the IC50 fell in the range of 1 to 10 nM. `COc1cc(F)c(-c2nnc(N[C@@H]3CCCN(C)C3)n3cccc23)c(C2CC2)c1` [Compound 75, 1-(2-cyclopropyl-6-fluoro-4-methoxyphenyl)-N-[(3R)-1-methylpiperidin-3-yl]pyrrolo[1,2-d][1,2,4]triazin-4-amine]: the half-maximal inhibitory concentration (IC50) lay within 1 to 10 nM. Then `Cc1ccc(-c2nnc(N[C@H]3C[C@@H](CO)C3)n3cncc23)c(OC(F)F)c1` [Compound 183, [(1s,3s)-3-({1-[2-(difluoromethoxy)-4-methylphenyl]imidazo[1,5-d][1,2,4]triazin-4-yl}amino)cyclobutyl]methanol], with 10 to 100 nM. With `COc1ccc(-c2nnc(NC[C@@H]3CCCN3C)n3cccc23)c(OC(F)(F)F)c1` [Compound 74, 1-[4-methoxy-2-(trifluoromethoxy)phenyl]-N-{[(2S)-1-methylpyrrolidin-2-yl]methyl}pyrrolo[1,2-d][1,2,4]triazin-4-amine], the 50% inhibitory concentration (IC50) fell in the range of 10 to 100 nM. Regarding `CCN1CCC[C@@H](Nc2nnc(-c3ccc(Cl)cc3OC(F)F)c3cncn23)C1` [Compound 191, 1-[4-chloro-2-(difluoromethoxy)phenyl]-N-[(3R)-1-ethylpiperidin-3-yl]imidazo[1,5-d][1,2,4]triazin-4-amine], the concentration for half-maximal inhibition (IC50) is under 1 nM. Regarding `COc1ccc(-c2nnc(N[C@H]3CCCC[C@@H]3O)n3cccc23)c(OC(F)(F)F)c1` [Compound 81, (1S,2S)-2-({1-[4-methoxy-2-(trifluoromethoxy)phenyl]pyrrolo[1,2-d][1,2,4]triazin-4-yl}amino)cyclohexan-1-ol], the concentration for half-maximal inhibition (IC50) lay within 10 to 100 nM.

Turning to `FC(F)Oc1cc(C(F)(F)F)ccc1-c1nnc(N[C@@H]2CCCNC2)n2cccc12` [Compound 35, 1-[2-(difluoromethoxy)-4-(trifluoromethyl)phenyl]-N-[(3R)-piperidin-3-yl]pyrrolo[1,2-d][1,2,4]triazin-4-amine], the IC50 was 10 to 100 nM. In the case of `Cc1ccc(-c2nnc(N[C@H]3C[C@@](C)(O)C3)n3cncc23)c(CC(F)(F)F)c1` [Compound 318, (1s,3s)-1-methyl-3-({1-[4-methyl-2-(2,2,2-trifluoroethyl)phenyl]imidazo[1,5-d][1,2,4]triazin-4-yl}amino)cyclobutan-1-ol], the IC50 fell in the range of 1 to 10 nM. In the case of `COc1ccc(-c2nnc(NC3CCNC3=O)n3ccc(F)c23)c(C(F)(F)F)c1` (centres unmarked) [Compound 116, 3-({8-fluoro-1-[4-methoxy-2-(trifluoromethyl)phenyl]pyrrolo[1,2-d][1,2,4]triazin-4-yl}amino)pyrrolidin-2-one], the IC50 fell in the range of 10 to 100 nM.

For `COc1ccc(-c2nnc(N[C@@H]3CCCN(CCO)C3)n3cncc23)c(C(F)(F)F)c1` [Compound 213, 2-[(3R)-3-({1-[4-methoxy-2-(trifluoromethyl)phenyl]imidazo[1,5-d][1,2,4]triazin-4-yl}amino)piperidin-1-yl]ethan-1-ol], the half-maximal inhibitory concentration (IC50) lay in the range of 1 to 10 nM. Consider `O[C@@H]1CCCC[C@H]1Nc1nnc(-c2ccc(C(F)(F)F)cc2OC(F)(F)F)c2cncn12` [Compound 242, (1R,2R)-2-({1-[2-(trifluoromethoxy)-4-(trifluoromethyl)phenyl]imidazo[1,5-d][1,2,4]triazin-4-yl}amino)cyclohexan-1-ol], for which the IC50 was under 1 nM. For the compound `COc1ccc(-c2nnc(Nc3cc[nH]n3)n3cccc23)c(C2CC2)c1` [Compound 105, 1-(2-cyclopropyl-4-methoxyphenyl)-N-(1H-pyrazol-3-yl)pyrrolo[1,2-d][1,2,4]triazin-4-amine], the half-inhibitory concentration (IC50) is 100 to 300 nM.

Take `FC(F)(F)Oc1cc(C(F)(F)F)ccc1-c1nnc(Nc2cc[nH]n2)n2cccc12` [Compound 150, N-(1H-pyrazol-3-yl)-1-[2-(trifluoromethoxy)-4-(trifluoromethyl)phenyl]pyrrolo[1,2-d][1,2,4]triazin-4-amine]: the IC50 fell in the range of 100 to 300 nM. Turning to `Cc1cc2c(-c3ccc(C4CC4)cc3C(F)F)nnc(N[C@@H]3CCCN(C)C3)n2n1` [Compound 363, 4-[4-cyclopropyl-2-(difluoromethyl)phenyl]-2-methyl-N-[(3R)-1-methylpiperidin-3-yl]pyrazolo[1,5-d][1,2,4]triazin-7-amine], the half-inhibitory concentration (IC50) fell in the range of 1 to 10 nM. As for `Cc1cc2c(-c3ccc(C4CC4)cc3OC(F)F)nnc(N[C@@H]3CCCN(C)C3)n2n1` [Compound 360, 4-[4-cyclopropyl-2-(difluoromethoxy)phenyl]-2-methyl-N-[(3R)-1-methylpiperidin-3-yl]pyrazolo[1,5-d][1,2,4]triazin-7-amine], the IC50 was under 1 nM. Consider `O=C1NCCC1Nc1nnc(-c2ccc(C(F)(F)F)cc2C2CC2)c2cncn12` (centres unmarked) [Compound 333, 3-({1-[2-cyclopropyl-4-(trifluoromethyl)phenyl]imidazo[1,5-d][1,2,4]triazin-4-yl}amino)pyrrolidin-2-one], for which the concentration for half-maximal inhibition (IC50) was 1 to 10 nM. As for `COc1ccc(-c2nnc(NC(C)c3cccc(O)c3)n3cncc23)c(C(F)(F)F)c1` (centres unmarked) [Compound 251, 3-[1-({1-[4-methoxy-2-(trifluoromethyl)phenyl]imidazo[1,5-d][1,2,4]triazin-4-yl}amino)ethyl]phenol], the IC50 was under 1 nM.

For the compound `Cc1cc2c(-c3ccc(C(F)(F)F)cc3C(F)(F)F)nnc(NC3CCNC3=O)n2c1` (centres unmarked) [Compound 161, 3-({1-[2,4-bis(trifluoromethyl)phenyl]-7-methylpyrrolo[1,2-d][1,2,4]triazin-4-yl}amino)pyrrolidin-2-one], the IC50 was in the range of 1 to 10 nM.

Regarding `COc1ccc(-c2nnc(NCc3nncn3C)n3cccc23)c(OC(F)(F)F)c1` [Compound 92, 1-[4-methoxy-2-(trifluoromethoxy)phenyl]-N-[(4-methyl-4H-1,2,4-triazol-3-yl)methyl]pyrrolo[1,2-d][1,2,4]triazin-4-amine], the IC50 is 100 to 300 nM. Turning to `COc1ccc(-c2nnc(NCc3nnnn3C)n3cccc23)c(OC(F)(F)F)c1` [Compound 125, 1-[4-methoxy-2-(trifluoromethoxy)phenyl]-N-[(1-methyl-1H-tetrazol-5-yl)methyl]pyrrolo[1,2-d][1,2,4]triazin-4-amine], the IC50 was 100 to 300 nM. Consider `COc1ccc(-c2nnc(N[C@H]3C[C@@](C)(CO)C3)n3cncc23)c(CC(F)(F)F)c1` [Compound 341, [(1s,3s)-3-({1-[4-methoxy-2-(2,2,2-trifluoroethyl)phenyl]imidazo[1,5-d][1,2,4]triazin-4-yl}amino)-1-methylcyclobutyl]methanol], for which the 50% inhibitory concentration (IC50) is 10 to 100 nM.
